Measurements from patent US12419847B2, “Composition and method for attenuating neuroinflammation, amyloidopathy and tauopathy” (Trustees of Dartmouth College, priority 2020, dated 2025).

Assays:
[1] = molecular target: T1, ACAT1 (Homo sapiens (Human), UniProt P35610); assay: human ACAT1 IC50 by mixed liposome assay
Procedure: In vitro Mixed Liposomal ACAT Activity Assay. […] Lysed cells were collected and aliquoted into pre-chilled tubes containing the liposomal mixture of taurocholate, phosphatidylcholine, and cholesterol. Tubes were vortexed and kept on ice for 5 minutes. Samples were then incubated in a 37° C. shaking water bath with ^3H-oleoyl CoA added for 10 minutes. The assay was stopped by adding CHCl3:MeOH (2:1). Lipids were extracted and analyzed by the same TLC method described herein.

[2] = tested on: ACAT; assay: ACAT enzyme activity in mouse tissue homogenates after IV injection of nanoparticles; format: in vivo; settings: delivered IV in nanoparticles
Procedure: A1^−/− refers to Acat1^−/− mouse. ACAT activity was determined by using a mixed liposome assay. N=4 for WT mice age (2-3 months) and gender matched. N=1 for A1^−/− mouse. N.S., not significant; P<0.05*, P<0.01**, P<0.001***. Analysis by two-way ANOVA. The significance is relative to vehicle-treated group.
A1^−/− refers to Acat1^−/− mouse. Note, the major isoenzyme in mouse liver is ACAT2. ACAT activity was determined without or with perfusion as indicated. N=3-4 for WT mice age- and gender-matched. N=1 for A1^−/− mouse. N.S., not significant; P<0.05*, P<0.01**, P<0.001***. Two-way ANOVA. The significance is relative to vehicle-treated group.
Mice were perfused before brains were isolated. N=2-3 WT mice/group. N=1 A1^−/− mouse. Statistical analysis, 2-way ANOVA. *P<0.05; **P<0.01; ***P<0.001.
As a component of the above-referenced analysis, a portion of the mice were treated with perfusion (to remove blood contamination from tissues).

[3] = tested on: primary cortical neurons; assay: Lactate dehydrogenase (LDH) toxicity assay
Procedure: Cells were incubated in enriched neurobasal (NB) medium (Thermo Fisher Scientific, Waltham, MA) (500 mL NB media, 200 mM L-glutamine, B-27 with vitamin A, 1 mL penicillin-streptomycin (1%), and 340 mg glucose). Neurons were allowed to grow processes for 4-6 days prior to treatment.
Lactate Dehydrogenase (LDH) Toxicity Assay. Primary cortical neurons were harvested and maintained as described above. […] After treatment, the conditioned media from the cells were collected, spun at 12,000 rpm for 30 minutes to remove cellular debris, supernatant transferred to new tube, and frozen at −80° C. until time of assay. Using Cytotoxicity Detection Kit (LDH) (Roche), media and reaction mixture were mixed, incubated for 30 minutes at room temperature protected from light, and the absorbance was measured at 490 nm.

[4] = tested on: ABCA1; assay: ABCA1 protein content in human myelin debris-treated HMC3 cells; format: cell-based; settings: HMC3, human myelin debris 25 μg/mL cholesterol, 0.5 μM, 24 hours
Procedure: […]. Afterward, cells were harvested for western blot analyses. Lysates of HEK293 cells and lysates of HMC3 cells treated with 10 μM LXR agonist T0901317 for 24 hours were respectively used as negative and positive controls for ABCA1 signals. […] Data are expressed as mean±SEM.
Subsequently, myelin debris from human brains was prepared and it was observed that the cholesterol/protein ratio, as well as the protein composition between mouse myelin debris and human myelin debris, were very similar. […]

[5] = molecular target: T2, ACAT2 (Homo sapiens (Human), UniProt O75908); settings: cited from earlier work
[6] = tested on: IL-4Rα; assay: IL-4Rα protein content in HMC3 cells (western blot); format: cell-based, human; settings: for IL-4Rα protein content: human myelin debris-treated HMC3 cells, co-incubation
Procedure: . Exp. 130:56322) for 21 hours.
. […] Protein was isolated and analyzed by western blot analysis. Vinculin was the loading control. […]; **P<0.01.
Subsequently, myelin debris from human brains was prepared and it was observed that the cholesterol/protein ratio, as well as the protein composition between mouse myelin debris and human myelin debris, were very similar.

[7] = mice, orally administered; cited from earlier work
[8] = in vivo; cited from earlier work
[9] = tested on: IL-4Rα; assay: IL-4Rα expression in N9 microglial cells (immunoblot)
Procedure: Cells were harvested for immunoblot analysis for IL-4Rα. Vinculin was the loading control. Data expressed as mean+/− SEM, * p<0.05, ** p<0.01.
IL-4Rα expression was determined by convention methods. 25 μg/mL cholesterol equals 38 μg/mL total myelin debris protein. Data are expressed as mean±SEM. *P<0.05; **P<0.01.

[10] = tested on: N9 microglial cells; assay: inflammatory responses to LPS in N9 microglial cells (qPCR, IκB-α western blot); format: cell-based, mouse; settings: 0.5 μM for 4 hours, then LPS 10-1000 ng/mL
Procedure: Six hours later, mRNA was extracted, and qPCR was performed to monitor pro-inflammatory (FIG. 4A) or anti-inflammatory (FIG. 4B) gene expression. […] Thirty minutes later, proteins were extracted for western blot analysis for total IκB-α, and for phosphorylated […]<0.01.

[11] = tested on: amyloidopathy; settings: in vivo; cited from earlier work
[12] = molecular target: T1, ACAT1; settings: cited from earlier work
[13] = molecular target: T2, ACAT2; settings: cited from earlier work; remark: listed apart in the source
[14] = molecular target: mouse ACAT1 (Mus musculus (Mouse), UniProt Q61263); assay: ACAT1 protein by western blot in microRNA-transfected NIH-3T3 mouse fibroblasts; format: cell-based; settings: for Relative Intensity (ACAT1 normalized to GAPDH): NIH-3T3, GFP-positive cells, 48 hours post-transfection; for reduction in ACAT1 protein content: mouse 3T3 fibroblasts, cDNA transfection
From the text: NIH-3T3 mouse fibroblasts were transiently transfected with one of several rAAV vectors encoding EmGFP and microRNA (miR) #52, #53, #54 or #55. Forty-eight hours post-transfection, GFP-positive cells were harvested by FACS. GFP-positive cells were washed then lysed in 10% SDS and syringe homogenized. Twenty microgram of protein per sample was subjected to SDS-PAGE. After western blot analysis, bands were quantified with ImageJ. ACAT1 intensity was normalized to GAPDH as a loading control and expressed as relative intensity.
Four different siRNA molecules (#52-#55; Table 3) targeting the mouse Acat1 gene were inserted into an endogenous mouse microRNA (miR) scaffold using Invitrogen's RNAi design tool. The artificial miRs were ligated into the mammalian expression vector pcDNA6.2-GW/EmGFP-miR. […] The miRs were delivered to the cells using a standard cDNA transfection protocol.

T2 sequence (O75908 whole entry): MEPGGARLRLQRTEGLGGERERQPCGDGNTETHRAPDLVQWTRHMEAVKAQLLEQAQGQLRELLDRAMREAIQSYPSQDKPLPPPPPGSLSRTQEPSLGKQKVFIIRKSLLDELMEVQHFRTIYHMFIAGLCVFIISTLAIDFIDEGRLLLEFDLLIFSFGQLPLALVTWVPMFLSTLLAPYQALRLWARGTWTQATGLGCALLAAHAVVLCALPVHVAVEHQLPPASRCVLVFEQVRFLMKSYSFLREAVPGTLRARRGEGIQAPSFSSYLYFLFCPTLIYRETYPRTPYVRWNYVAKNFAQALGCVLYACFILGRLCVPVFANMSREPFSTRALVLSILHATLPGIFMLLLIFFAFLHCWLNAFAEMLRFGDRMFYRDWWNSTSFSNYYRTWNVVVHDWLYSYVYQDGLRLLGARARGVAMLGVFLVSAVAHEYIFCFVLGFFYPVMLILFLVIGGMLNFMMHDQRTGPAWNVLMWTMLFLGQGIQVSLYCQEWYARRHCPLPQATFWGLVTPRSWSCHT
T1 sequence (P35610 whole entry): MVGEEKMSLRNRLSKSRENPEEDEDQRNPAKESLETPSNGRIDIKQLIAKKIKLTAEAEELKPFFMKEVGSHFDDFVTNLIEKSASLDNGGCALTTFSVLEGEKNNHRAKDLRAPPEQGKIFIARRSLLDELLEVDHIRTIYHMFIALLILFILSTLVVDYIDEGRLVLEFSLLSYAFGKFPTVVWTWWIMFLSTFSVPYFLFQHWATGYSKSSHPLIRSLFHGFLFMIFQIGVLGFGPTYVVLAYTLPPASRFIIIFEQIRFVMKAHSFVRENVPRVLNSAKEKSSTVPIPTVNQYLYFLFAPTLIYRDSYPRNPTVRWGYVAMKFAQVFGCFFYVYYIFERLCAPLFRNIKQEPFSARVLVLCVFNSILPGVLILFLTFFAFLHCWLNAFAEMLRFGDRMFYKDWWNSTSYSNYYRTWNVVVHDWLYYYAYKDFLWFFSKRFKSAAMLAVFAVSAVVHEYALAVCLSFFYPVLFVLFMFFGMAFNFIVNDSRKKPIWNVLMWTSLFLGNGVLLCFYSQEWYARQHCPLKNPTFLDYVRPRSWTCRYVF

**Q.** Which IC50 [1] does the source give for `CCCCCCCCCCCCS(=O)(=O)[C@](F)(C(=O)Nc1cc(C)c(O)c(C)c1C)c1ccccc1` [Analog F26] here?
**A.** 13 nM

**Q.** What about the “potency relative to F12511” value [1] of the same molecule?
**A.** ~3 times

**Q.** And the brain permeability [2]?
**A.** brain permeable

**Q.** With `CCCCCCCCCCCCS[C@H](C(=O)Nc1cc(C)c(O)c(C)c1C)c1ccccc1` [Analog F12511] as the molecule, how does the “cellular toxicity (LDH leakage)” value ([3]; 24 hours, 2 μM to 100 μM) read?
**A.** minimal, if any, toxicity

**Q.** What about the “cellular toxicity (LDH leakage)” value ([3]; 48 hours, very high concentrations (near 100 μM)) of the same molecule?
**A.** slight increase in toxicity

**Q.** What about the “cellular toxicity (LDH leakage)” value ([3]; 72 hours, 10 μM) of the same molecule?
**A.** only very minimal toxicity

**Q.** What about the “cellular toxicity (LDH leakage)” value ([3]; 72 hours, high concentration (near 100 μM)) of the same molecule?
**A.** more toxicity was detected

**Q.** What about the ABCA1 protein content [4] of the same molecule?
**A.** increased significantly

**Q.** And the brain permeability [2]?
**A.** permeable to the brain

**Q.** And the Ki [5]?
**A.** 110 nM

**Q.** And the IL-4Rα protein content [6]?
**A.** IL-4Rα protein content increases

**Q.** What about the “half-life in the blood” value [7] of the same molecule?
**A.** 1 to 2 h

**Q.** What about the clinical safety [8] of the same molecule?
**A.** passed phase I clinical safety tests

**Q.** Which ABCA1 protein content [4] does the source give for `CSc1cc(C)nc(SC)c1NC(=O)CN1CCN(CCSc2nc3ccccc3[nH]2)CC1` [Analog K-604, 2-[4-[2-(benzimidazol-2-ylthio)ethyl]piperazin-1yl]-N-[2,4-bis(methylthio)-6-methyl-3-pyridyl]acetamide] here?
**A.** increased significantly

**Q.** And the “enhancing effect on IL4R-α with myelin debris” value ([6]; HMC3 cells, mouse myelin debris, 21 hours)?
**A.** more robust

**Q.** And the IL-4Rα protein content [6]?
**A.** IL-4Rα protein content increases

**Q.** What about the “expression of the receptor IL-4Rα” value ([9]; 0.5 μM for 4 or 12 hours) of the same molecule?
**A.** increases expression of the receptor IL-4Rα

**Q.** What about the “enhancing effect on IL4R-α with myelin debris” value ([9]; mouse myelin debris, 21 hours) of the same molecule?
**A.** more robust

**Q.** What about the clinical safety [8] of the same molecule?
**A.** passed phase I clinical safety tests

**Q.** What about the “inflammatory responses to LPS” value [10] of the same molecule?
**A.** attenuates inflammatory responses to LPS

**Q.** With `CC(C)c1cc(C(C)C)c(CC(=O)NS(=O)(=O)Oc2c(C(C)C)cccc2C(C)C)c(C(C)C)c1` [CI 1011] as the molecule, how does the “amyloidopathy in a mouse model for AD” value [11] read?
**A.** reduce amyloidopathy

**Q.** Which “amyloidopathy in a mouse model for AD” value [11] does the source give for `CCCCCCCC[C@H](SCCCCCC)C(=O)Nc1c(SC)cc(C)nc1SC` [CP113,818] here?
**A.** reduce amyloidopathy and rescue cognitive deficits

**Q.** With `CCOC(=O)OC(=O)OCC` [diethyl pyrocarbonate] as the molecule, how does the “fold lower IC50 / greater activity for ACAT1 than for ACAT2” value [12] read?
**A.** 4 fold

**Q.** For `COc1ccc([C@@H](O)[C@@H](C)Oc2ccc([C@H]3O[C@H](c4ccc(O[C@H](C)[C@H](O)c5ccc6c(c5)OCO6)c(OC)c4)[C@H](C)[C@H]3C)cc2OC)cc1OC` [manassantin B], which “inhibition of hACAT-2” value ([13]; at 1 mM) is on record?
**A.** 32%

**Q.** For “miR #52: artificial microRNA targeting mouse ACAT1 sequence GGAGCTGAAGCCACTATTTAT (SEQ ID NO:1) (expressed or natural sequence; the letters are possibly those of the target site)”, which “Relative Intensity (ACAT1 normalized to GAPDH)” value [14] is on record?
**A.** 0.77

**Q.** With “miR #53: artificial microRNA targeting mouse ACAT1 sequence CTGTTTGAAGTGGACCACATCA (SEQ ID NO:2) (expressed or natural sequence; the letters are possibly those of the target site)” as the molecule, how does the “Relative Intensity (ACAT1 normalized to GAPDH)” value [14] read?
**A.** 0.56

**Q.** With “miR #54: artificial microRNA targeting mouse ACAT1 sequence CCCGGTTCATTCTGATACTGGA (SEQ ID NO:3) (expressed or natural sequence; target site or template, no part of the molecule)” as the molecule, how does the “Relative Intensity (ACAT1 normalized to GAPDH)” value [14] read?
**A.** 0.54

**Q.** What about the “reduction in ACAT1 protein content” value [14] of the same molecule?
**A.** 50-60%

**Q.** With “miR #55: artificial microRNA targeting mouse ACAT1 sequence AACTACCCAAGGACTCCTACTGTA (SEQ ID NO:4) (expressed or natural sequence; the letters are possibly those of the target site)” as the molecule, how does the “Relative Intensity (ACAT1 normalized to GAPDH)” value [14] read?
**A.** 0.39

**Q.** And the “reduction in ACAT1 protein content” value [14]?
**A.** 50-60%

**Q.** Which “Relative Intensity (ACAT1 normalized to GAPDH)” value [14] does the source give for “miR Negative Control: negative control miR (SEQ ID NO:9) which does not match any known vertebrate gene (TACTGCGCGTGGAGACG)” here?
**A.** 1.02

**Q.** For saucerneol B, which IC50 ([13]; Lee et al. 2004, read-out: IC50 hACAT-2) is on record?
**A.** 124000 nM
